Measurements reported in paper PMC3125126 (European journal of pharmacology, 2010).
Several values for one entry are separate records, joined by “and”; a condition that tells them apart may be missing. Equal values may be shown once. Read-outs that look alike come from different tables or passages of the source.

Assays:
dopamine transporter [1] = conditions: ref Chen et al., 2003, cited from earlier work
[2] = tested on: phospholipase C activity in HEK-D2-hDAT cells; format: cell-based, human
[3] = tested on: Ca2+-independent phospholipase A2; conditions: ref Yang et al., 1999; cited from earlier work
[4] = target: T1, human dopamine transporter (hDAT) (Homo sapiens, UniProt Q01959); assay: [125I]RTI-55 binding to membranes of HEK-D2-hDAT cells; conditions: no melittin, 4°C, 16 h, 4 independent experiments
[5] = ref Sugama et al., 2005; Nakamura et al., 2004; cited from earlier work
[6] = tested on: GTP binding regulatory proteins; conditions: ref Higashijima et al., 1988; cited from earlier work
protein kinase Cγ = conditions: bovine cerebellar cells; ref Shearman et al., 1989; cited from earlier work
[7] = tested on: rat glutamate transporter, EAAT4; conditions: ref Fairman et al., 1998, Tzingounis et al.; cited from earlier work
[8] = tested on: purified synaptosomes from rat striatum; conditions: rat striatal synaptosomes; ref L'hirondel et al., 1995; cited from earlier work
dopamine transporter [9] = conditions: ref Ingram and Amara, 2000; cited from earlier work
glutamate uptake = conditions: ref Volterra et al., 1992, 1994; cited from earlier work
[10] = tested on: Ca2+-dependent phospholipase A2; conditions: ref Street et al., 1993; cited from earlier work
[11] = target: T1, human dopamine transporter (hDAT); format: cell-based; conditions: butaclamol 100 nM added 10 min before uptake, with melittin 30 min pretreatment
HEK-D2-hDAT cells = assay: [3H]Arachidonic acid release from preloaded cells; format: cell-based, human; conditions: quinpirole 1 nM to 10 µM; loaded 4 or 24 hours; data not shown
[12] = target: T1, human dopamine transporter (hDAT); assay: Dopamine transporter internalization by biotinylation; format: cell-based
dopamine transporter [13] = conditions: ref Daniels and Amara, 1999; cited from earlier work
rat Leydig cells = conditions: ref Ronco et al., 2002; cited from earlier work
[14] = tested on: rat (ventral tegmental area); conditions: pretreatment with quinacrine; ref Reid et al., 1996; cited from earlier work
[15] = tested on: phospholipase A2 activity in HEK-D2-hDAT cells; assay: Phospholipase A2 activity after cell treatment; format: cell-based, human; conditions: melittin 10 µM and/or quinacrine 10 µM, 30 min; n=3; not significant P>0.05

T1 sequence (Q01959 whole entry): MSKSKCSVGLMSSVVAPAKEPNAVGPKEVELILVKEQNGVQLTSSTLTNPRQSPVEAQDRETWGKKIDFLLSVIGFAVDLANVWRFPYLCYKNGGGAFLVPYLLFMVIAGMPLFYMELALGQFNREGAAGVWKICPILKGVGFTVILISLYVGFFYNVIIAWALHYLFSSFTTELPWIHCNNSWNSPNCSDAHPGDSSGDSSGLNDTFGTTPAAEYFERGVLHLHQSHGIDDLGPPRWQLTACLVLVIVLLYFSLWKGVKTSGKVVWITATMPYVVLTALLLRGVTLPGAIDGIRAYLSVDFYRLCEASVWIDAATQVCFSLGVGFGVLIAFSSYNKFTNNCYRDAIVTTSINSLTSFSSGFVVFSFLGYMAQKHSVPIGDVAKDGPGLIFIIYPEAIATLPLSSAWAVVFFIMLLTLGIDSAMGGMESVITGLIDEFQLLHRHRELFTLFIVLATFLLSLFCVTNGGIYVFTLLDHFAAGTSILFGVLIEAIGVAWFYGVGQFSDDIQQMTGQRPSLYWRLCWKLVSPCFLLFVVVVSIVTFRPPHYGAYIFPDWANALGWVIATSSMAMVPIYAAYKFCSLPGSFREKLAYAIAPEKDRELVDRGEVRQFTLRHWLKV

CCCCC/C=C\C/C=C\C/C=C\C/C=C\CCCC(=O)OCC [Arachidonic acid ethyl ester]
effect on dopamine transporter function (mimicry of arachidonic acid) (dopamine transporter [1]; Ingram and Amara, 2000): does not mimic the effects of arachidonic acid on dopamine transporter function

NCCc1ccc(O)c(O)c1 [dopamine]
inositol phosphate-1 concentration [2]: 8.8 ± 3.0 nM

CCCCC/C=C\C/C=C\CCCCCCCC(=O)O [linoleic acid]
dopamine uptake by rotating disk electrode voltammetry (dopamine transporter [1]): inhibit dopamine transporter-mediated uptake, although to a lesser degree

O=C1O/C(=C/Br)CCC1c1cccc2ccccc12 (stereo not shown) [4-bromoenol lactone]
inhibition of Ca2+-independent phospholipase A2 [3]: selectively inhibited

COC(=O)[C@H]1C(c2ccc(I)cc2)C[C@@H]2CC[C@H]1N2C (stereo partly shown) [RTI-55]
RTI-55 Bmax ([4]; protease inhibitors): 6.7 ± 0.8 pmol/mg
Kd ([4]; read-out: RTI-55 KD): 8.3 ± 1.8 nM

CCCCCCCC/C=C\CCCCCCCC(=O)O [oleic, oleic acid]
dopamine uptake by rotating disk electrode voltammetry (dopamine transporter [1]): inhibit dopamine transporter-mediated uptake, although to a lesser degree

NC[C@@H]1O[C@H](O[C@H]2[C@@H](O)[C@H](O[C@@H]3[C@@H](O)[C@H](N)C[C@H](N)[C@H]3O[C@H]3O[C@H](CN)[C@@H](O)[C@H](O)[C@H]3N)O[C@@H]2CO)[C@H](N)[C@@H](O)[C@@H]1O [neomycin]
phospholipase C activity in presence of melittin without or with neomycin ([2]; neomycin 30 µM pretreatment, melittin 1.3 µM, 1 hour): no significant difference

mastoparan
effect on membrane lipid rafts [5]: disrupts the membrane lipid rafts
stimulation of GTP binding regulatory proteins [6]: stimulate GTP binding regulatory proteins indirectly

CCCCC/C=C\C/C=C\C/C=C\C/C=C\CCCC(=O)O [arachidonic acid]
protein kinase Cγ activation (protein kinase Cγ): can activate protein kinase Cγ
effect on proton conductance [7]: alters proton conductance
spontaneous dopamine release, dopamine synthesis and uptake [8]: dose-dependently increases spontaneous release of dopamine and decreases dopamine synthesis and uptake
dopamine uptake by rotating disk electrode voltammetry (dopamine transporter [1]): decrease in dopamine uptake
effect on cation conductance (dopamine transporter [9]): directly stimulates a cocaine-sensitive cation conductance
effect on uptake of glutamate (glutamate uptake): inhibits uptake of glutamate

CCCCC/C=C\C/C=C\C/C=C\C/C=C\CCCC(=O)C(F)(F)F [Arachidonyl trifluoromethyl ketone]
inhibition of Ca2+-dependent phospholipase A2 [10]: potent and selective inhibitor

CC(C)(C)[C@]1(O)CCN2C[C@H]3c4ccccc4CCc4cccc(c43)[C@@H]2C1 [butaclamol]
effect of D2 receptor block on [3H]dopamine uptake [11]: no difference in [^3H]dopamine uptake

CCCN1CCC[C@@H]2Cc3n[nH]cc3C[C@H]21 [quinpirole]
inositol phosphate-1 concentration ([2]; quinpirole 1 µM, 1 hour, basal 8.3 ± 2.5 nM, n=3, not significant P>0.05): 11.1 ± 2.0 nM
release of loaded [3H]arachidonic acid (HEK-D2-hDAT cells): less than 0.4%

COC(=O)[C@H]1[C@@H](OC(=O)c2ccccc2)C[C@@H]2CC[C@H]1N2C [cocaine]
dopamine transporter internalization [12]: 97.8 ± 6.2 % of control and 93.9 ± 8.4 % of control
effect on phorbol ester-induced dopamine transporter internalization (dopamine transporter [13]): does not alter phorbol ester-induced dopamine transporter internalization

CCN(CC)CCCC(C)Nc1c2ccc(Cl)cc2nc2ccc(OC)cc12 (stereo not shown) [quinacrine]
effect on melittin-induced arachidonic acid release (rat Leydig cells): unable to inhibit melittin-induced release of arachidonic acid
block of melittin-caused sensitization [14]: blocked
phospholipase A2 activity [15]: 134 ± 19 % compared to control
